Test results reported in publication PMC3413214, “Structural and biochemical characterization of a trapped coenzyme A adduct of Caenorhabditis elegans glucosamine-6-phosphate N-acetyltransferase 1” (Acta Crystallographica Section D: Biological Crystallography, 2012).

Assays:
CeGNA1 [1] = molecular target: T1, CeGNA1 (Caenorhabditis elegans, UniProt Q17427); assay: X-ray crystal structure, […] Å; type: binding; settings: ternary product complex with CoA; acceptor (GlcN-6P) subsite at dimer interface; crystals at pH 8.5
T1 construct: gene gna-1; full-length, 165 residues; GST fusion from pGEX-6P-1 in E. coli BL21(DE3) pLysS, GST cut with PreScission protease; homodimer; 18 876 Da by MALDI
T1 sequence (Q17427 whole entry, the tested form may be a part): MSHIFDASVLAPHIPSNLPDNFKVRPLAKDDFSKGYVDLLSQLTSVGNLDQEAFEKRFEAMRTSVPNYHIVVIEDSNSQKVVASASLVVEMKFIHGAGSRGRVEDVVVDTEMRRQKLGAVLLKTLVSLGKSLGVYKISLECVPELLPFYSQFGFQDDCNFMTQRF

CeGNA1 [2] = molecular target: T1, CeGNA1; assay: X-ray crystal structure, […] Å; MALDI-TOF mass spectrometry; type: binding; settings: covalent; disulfide to Cys141, inactive enzyme, reversed by DTT; nonreducing crystallisation, pH 8.5

| Structure (SMILES) | X-ray crystal structure, 1.75 Å (CeGNA1 [1]) | X-ray crystal structure, 1.55 Å; MALDI-TOF mass spectrometry (CeGNA1 [2]) |
| --- | --- | --- |
| CC(=O)N[C@H]1C(O)O[C@H](COP(=O)(O)O)[C@@H](O)[C@@H]1O (some centres unmarked) [GlcNAc-6P] | occupied by the products CoA and GlcNAc-6-phosphate, both with well defined electron density | – |
| CC(C)(COP(=O)(O)OP(=O)(O)OC[C@H]1O[C@@H](n2cnc3c(N)ncnc32)[C@H](O)[C@@H]1OP(=O)(O)O)[C@@H](O)C(=O)NCCC(=O)NCCS [CoA] | – | the CoA thiol has formed a covalent complex with the enzyme through a disulfide |
